Where two headings read alike, the source gives them in different places.
Assays:
[1] = drug-related adverse events, safety population, trials A and B
[2] = single dose 100 mg racemic tramadol, cited from earlier work
[3] = tested on: cold-induced pain; assay: cold pressor test (cold-induced pain), trials A and B; format: in vivo, human
[4] = human, in vivo; cited from earlier work
[5] = respiration and other vital signs, trials A and B; conditions: trial A
[6] = tested on: pupil diameter; assay: pupillometry, trial A; format: in vivo, human; conditions: after dosing
[7] = trial A (n = 43, males), 0-10 VAS
[8] = trial B (n = 18, females), with paroxetine
[9] = trial B (n = 18, females), with paroxetine, 0-10 VAS
[10] = trial B (n = 42, males), with paroxetine
[11] = trial B (n = 42, males), with paroxetine, 0-10 VAS

COc1cccc(C2(O)CCCCC2CN(C)C)c1 (racemic) [tramadol]
Deaths ([1]; trial A): 0 (0) N (%)
Severe AEs ([1]; trial A): 0 (0) N (%)
subjects reporting drug-related AEs ([1]; trial A): 49%
All AEs ([1]; trial A (N = 43)): 20 (49) N (%)
Dizziness ([1]; trial A, all subjects): 5 (12) N (%)
Euphoria ([1]; trial A, all subjects): 0 (0) N (%)
Feel abnormal ([1]; trial A, all subjects): 1 (2) N (%)
Feel hot ([1]; trial A, all subjects): 0 (0) N (%)
Headache ([1]; trial A, all subjects): 7 (17) N (%)
Nausea ([1]; trial A, all subjects): 5 (12) N (%)
Presyncope ([1]; trial A, all subjects): 0 (0) N (%)
Pruritus ([1]; trial A, all subjects): 4 (10) N (%)
Somnolence ([1]; trial A, all subjects): 2 (5) N (%)
Spasticity ([1]; trial A, all subjects): 1 (2) N (%)
Sweating ([1]; trial A, all subjects): 0 (0) N (%)
Vomiting ([1]; trial A, all subjects): 1 (2) N (%)
Dizziness ([1]; trial A, male): 5 (12) N (%)
Euphoria ([1]; trial A, male): 0 (0) N (%)
Feel abnormal ([1]; trial A, male): 1 (2) N (%)
Feel hot ([1]; trial A, male): 0 (0) N (%)
Headache ([1]; trial A, male): 7 (17) N (%)
Nausea ([1]; trial A, male): 5 (12) N (%)
Presyncope ([1]; trial A, male): 0 (0) N (%)
Pruritus ([1]; trial A, male): 4 (10) N (%)
Somnolence ([1]; trial A, male): 2 (5) N (%)
Spasticity ([1]; trial A, male): 1 (2) N (%)
Sweating ([1]; trial A, male): 0 (0) N (%)
Vomiting ([1]; trial A, male): 1 (2) N (%)
Deaths ([1]; trial B): 0 (0) N (%)
Severe AEs ([1]; trial B): 0 (0) N (%)
All AEs ([1]; trial B (N = 60), with paroxetine): 30 (50) N (%)
Dizziness ([1]; trial B, all subjects): 8 (13) N (%)
Euphoria ([1]; trial B, all subjects): 1 (2) N (%)
Feel abnormal ([1]; trial B, all subjects): 2 (3) N (%)
Feel hot ([1]; trial B, all subjects): 0 (0) N (%)
Headache ([1]; trial B, all subjects): 6 (10) N (%)
Nausea ([1]; trial B, all subjects): 8 (13) N (%)
Presyncope ([1]; trial B, all subjects): 1 (2) N (%)
Pruritus ([1]; trial B, all subjects): 1 (2) N (%)
Somnolence ([1]; trial B, all subjects): 4 (7) N (%)
Spasticity ([1]; trial B, all subjects): 3 (5) N (%)
Sweating ([1]; trial B, all subjects): 1 (2) N (%)
Vomiting ([1]; trial B, all subjects): 2 (3) N (%)
Dizziness ([1]; trial B, female): 4 (22) N (%)
Euphoria ([1]; trial B, female): 0 (0) N (%)
Feel abnormal ([1]; trial B, female): 0 (0) N (%)
Feel hot ([1]; trial B, female): 0 (0) N (%)
Headache ([1]; trial B, female): 6 (33) N (%)
Nausea ([1]; trial B, female): 2 (11) N (%)
Presyncope ([1]; trial B, female): 0 (0) N (%)
Pruritus ([1]; trial B, female): 1 (6) N (%)
Somnolence ([1]; trial B, female): 2 (11) N (%)
Spasticity ([1]; trial B, female): 0 (0) N (%)
Sweating ([1]; trial B, female): 0 (0) N (%)
Vomiting ([1]; trial B, female): 0 (0) N (%)
Dizziness ([1]; trial B, male): 4 (10) N (%)
Euphoria ([1]; trial B, male): 1 (2) N (%)
Feel abnormal ([1]; trial B, male): 2 (5) N (%)
Feel hot ([1]; trial B, male): 0 (0) N (%)
Headache ([1]; trial B, male): 0 (0) N (%)
Nausea ([1]; trial B, male): 6 (14) N (%)
Presyncope ([1]; trial B, male): 1 (2) N (%)
Pruritus ([1]; trial B, male): 0 (0) N (%)
Somnolence ([1]; trial B, male): 2 (5) N (%)
Spasticity ([1]; trial B, male): 3 (7) N (%)
Sweating ([1]; trial B, male): 1 (2) N (%)
Vomiting ([1]; trial B, male): 2 (5) N (%)
headache, tramadol AE profile compared to the desmetramadol AE profile ([1]; trial B, same subjects): −40%
nausea, tramadol AE profile compared to the desmetramadol AE profile ([1]; trial B, same subjects): −50%
presyncope, tramadol AE profile compared to the desmetramadol AE profile ([1]; trial B, same subjects): −83%
pruritus, tramadol AE profile compared to the desmetramadol AE profile ([1]; trial B, same subjects): −75%
somnolence, tramadol AE profile compared to the desmetramadol AE profile ([1]; trial B, same subjects): −60%
vomiting, tramadol AE profile compared to the desmetramadol AE profile ([1]; trial B, same subjects): −78%
subjects reporting drug-related AEs ([1]; trial B, with paroxetine): 50%
subjects experiencing nausea ([2]; EM group (11 EMs)): 9%
subjects experiencing nausea ([2]; UM group (11 UMs)): ~50%
average duration of tolerance to pain ([3]; trial A): 62 s
Time to first pain, mean difference versus placebo ([3]; trial A (n = 43, males)): 2.1 s
Time to withdrawal, mean difference versus placebo ([3]; trial A (n = 43, males)): 12.4 (4.4) seconds
Pain intensity at 30 seconds, MPD versus placebo [3, 7]: −0.46
Pain intensity at first perception, MPD versus placebo [3, 7]: −0.21
Time to withdrawal, mean difference versus placebo ([3]; trial A (n = 43, males), listed as TRAMADOL): 12.4 s
Average (SD) subject-reported pain scores at 30 seconds ([3]; trial A, 0-10 VAS): 6.0 (1.7)
Time to first pain, MPD versus placebo [3, 8]: 2.6 s
Time to withdrawal, MPD versus placebo [3, 8]: 7.5 s
Pain intensity at 30 seconds, MPD versus placebo [3, 9]: 0.03
Pain intensity at first perception, MPD versus placebo [3, 9]: 0.01
Time to first pain, MPD versus placebo [3, 10]: 1.5 s
Time to withdrawal, MPD versus placebo [3, 10]: 6.9 (1.6) seconds
Pain intensity at 30 seconds, MPD versus placebo [3, 11]: failed to statistically differentiate from placebo
Pain intensity at first perception, MPD versus placebo [3, 11]: −0.08
Pain intensity at 30 seconds, MPD versus placebo ([3]; trial B (n = 42, males), with paroxetine, 0-10 VAS, listed as TRAMADOL): −0.25
Time to withdrawal, MPD versus placebo ([3]; trial B (n = 42, males), with paroxetine, listed as TRAMADOL): 6.9 s
lethal dose [4]: > 5 grams
pre-dose versus post-dose effect on respiratory rate compared to placebo or each other [5]: no discernable pre-dose versus post-dose effect
pupil diameter, mean paired reduction [SD] compared to placebo [6]: −0.7 (0.6) millimeters
